Test results as given in patent publication US9556168B2, “N-alkylated indole and indazole compounds as RORgammaT inhibitors and uses thereof” (Merck Sharp & Dohme Corp., priority 2012, dated 2017).
Like-named read-outs stand apart in the source and are kept apart here.

Molecular target: human RORgammaT-Ligand Binding Domain (LBD) (Homo sapiens (Human), UniProt P51449)
Test: RORγ-Ligand Binding Domain TR-FRET assay (co-activator peptide SRC1_2 recruitment)
Assay type: biochemical
[1] = HIS-tagged RORγ-LBD 3 nM, biotinylated SRC1 LXXLL peptide 100 nM, incubated overnight at 4° C., 665 nm/615 nm signal quotient

Sequence of human RORgammaT-Ligand Binding Domain (LBD) (P51449 269-508): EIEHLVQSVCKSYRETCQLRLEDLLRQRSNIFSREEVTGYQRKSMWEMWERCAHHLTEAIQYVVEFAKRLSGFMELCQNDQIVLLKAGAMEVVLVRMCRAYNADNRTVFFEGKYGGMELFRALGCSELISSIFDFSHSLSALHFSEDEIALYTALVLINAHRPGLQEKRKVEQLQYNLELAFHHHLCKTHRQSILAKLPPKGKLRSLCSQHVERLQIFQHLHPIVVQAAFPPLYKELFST

| IC50 [1] [µM] | Structure (SMILES) | IC50 [µM] |
| --- | --- | --- |
| – | N#Cc1ccc(Cl)cc1Cn1nc(-c2ccc(C(=O)O)cc2F)c2ncccc21 [Example 1J, 4-[1-(5-chloro-2-cyanobenzyl)-1H-pyrazolo[4,3-b]pyridin-3-yl]-3-fluorobenzoic acid] | > 10 |
| > 10 | CC(c1ccccc1C(F)(F)F)n1nc(-c2ccc(C(=O)O)cc2F)c2ncccc21 (stereo not shown) [Example 1K, 3-fluoro-4-(1-{1-[2-(trifluoromethyl)phenyl]ethyl}-1H-pyrazolo[4,3-b]pyridin-3-yl)benzoic acid] | – |
| > 10 | O=C(O)c1ccc(-c2nn(Cc3c(F)ccc(F)c3F)c3cccnc23)c(F)c1 [Example 1N, 3-fluoro-4-[1-(2,3,6-trifluorobenzyl)-1H-pyrazolo[4,3-b]pyridin-3-yl]benzoic acid] | – |
| > 10 | O=C(O)c1ccc(-c2nn(Cc3c(F)cccc3F)c3cccnc23)c(F)c1 [Example 1P, 4-[1-(2,6-difluorobenzyl)-1H-pyrazolo[4,3-b]pyridin-3-yl]-3-fluorobenzoic acid] | – |
